Measurements: PMC8424217 (The Journal of Biological Chemistry, 2021)
Peptide text beside a SMILES is read from it. * marks the point of attachment. Palmitoyl = CCCCCCCCCCCCCCCC(=O)*

Assays:
HEK 293 cells [1] = tested on: HEK 293 cells
Experimental: Pepducins are composed of a synthetic peptide, mimicking an intracellular GPCR loop, to which a hydrophobic moiety, most commonly the fully saturated C16 fatty acid palmitate, is conjugated at their N-termini ([39]). […] The second pepducin ([Trp^1, Leu^2]hUT-Pep3) comprises the hUT ICL3 sequence; however, the first two N-terminal amino acids were replaced by the corresponding residues from rat UT ICL3 (-Arg-Arg-in hUT and -Trp-Leu- in rUT).
Toxicity of hUT-derived pepducins was evaluated using (A) MTT or (B) LDH assays in HEK 293-hUT cells.
HEK 293 cells were seeded at a density of 2 × 10^4 cells/well in 96 well-plates and cultured at 37 °C for 24 h. Cells were then incubated in serum-free media with hUT-derived pepducins at various concentrations (10^−8 M–10^−4 M). Viability was assessed with an MTS kit (CellTiter 96 AQueous, Promega) and a microplate reader (MTX^TC Revelation, Dynex Tech) in order to determine the optical density related to the conversion of MTS into purple-colored water-soluble formazan. Positive control (cells treated with 10% DMSO) and negative control (nontreated cells) were included in each experiment. Results were expressed as the percentage of control (nontreated cells). The presence of lactate dehydrogenase (LDH), released in the culture medium from dead cells, was also determined using a commercial LDH kit (BioVision). Positive control (cells treated with lysis buffer) and negative control (nontreated cells) were included in each experiment. Results were expressed as the percentage of the maximum LDH release following cell lysis.

hUT [2] = biological target: T1, hUT (Homo sapiens, UniProt Q9UKP6); test: G12 activation, BRET biosensor, HEK 293-hUT cells; type: cell-based; parameters: expressed in transfected cells
T1 sequence (Q9UKP6 1-389): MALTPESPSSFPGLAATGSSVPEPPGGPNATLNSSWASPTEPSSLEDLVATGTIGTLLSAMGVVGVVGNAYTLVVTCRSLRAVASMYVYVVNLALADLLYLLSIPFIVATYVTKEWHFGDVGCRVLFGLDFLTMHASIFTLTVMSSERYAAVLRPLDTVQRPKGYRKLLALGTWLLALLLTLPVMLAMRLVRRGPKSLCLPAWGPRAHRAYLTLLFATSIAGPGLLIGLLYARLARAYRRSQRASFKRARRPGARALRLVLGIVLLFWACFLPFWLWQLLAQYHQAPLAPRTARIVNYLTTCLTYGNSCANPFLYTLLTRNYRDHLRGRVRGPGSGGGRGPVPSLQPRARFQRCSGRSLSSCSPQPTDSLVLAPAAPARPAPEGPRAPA
Experimental: (§1) Figure 6 Signaling signature of hUT-pepducins following hUT receptor activation. […] Each curve represents mean ± SEM of at least three independent concentration-response experiments performed in triplicate.
HEK 293-hUT cells were grown in DMEM culture media supplemented with 10% foetal bovine serum, HEPES, sodium pyruvate, and G418 (200 μg mL^−1). Passages were performed when cells reached 80% of confluency. Cells were initially plated in 96-well plates at a density of 10,000 cells/well. […] Then, to evaluate Gq and G12 activation, 10 μl of a 1/20 dilution (diluted before use) of coelenterazine 400A (stock at 1 mM in ethanol) in Kreb's buffer and 10 μl of the 10× appropriate concentration of peptide were added, and the luminescence was evaluated with an Infinite M1000 PRO. […] Readings were performed after 5 min using an Infinite M1000 PRO. […] BRET ratio was determined by calculating the ratio of the light emitted by GFP10 over the light emitted by the RlucII.

hUT [3] = biological target: T1, hUT; test: β-arrestin 2 conformational change, BRET biosensor, HEK 293-hUT cells; type: cell-based; parameters: expressed in transfected cells; details: 15 min at RT
Experimental: as §1
HEK 293-hUT cells were grown in DMEM culture media supplemented with 10% foetal bovine serum, HEPES, sodium pyruvate, and G418 (200 μg mL^−1). Passages were performed when cells reached 80% of confluency. Cells were initially plated in 96-well plates at a density of 10,000 cells/well. The following day, the medium is replaced with DMEM culture media supplemented with 2.5% foetal bovine serum (FBS), and 12 h later, cells were transiently transfected with 25 ng/well of a Gq-polycistronic, 25 ng/well of a G12-polycistronic BRET sensor, 25 ng/well of a G13-polycistronic BRET sensor, 2.5 ng/well pIRESB RLucII-ERK-NLS-GFP BRET sensor, 2.5 ng β-arrestin 1-polycistronic BRET sensor, or 2.5 ng β-arrestin 2-polycistronic BRET sensor using Lipofectamine2000 at a ratio of 3:1 (Lipofectamine/plasmid DNA) in serum-free Opti-MEM ([44], [81]). Sixteen hours posttransfection, medium was replaced with DMEM supplemented with 10% FBS, HEPES, sodium pyruvate and G418 (200 μg mL^−1) and cell growth was resumed for another 16 h. Cells were washed with 150 μl PBS solution supplemented with 0.1% of glucose and then incubated with 80 μl of this solution for 2 h. Then, to evaluate Gq and G12 activation, 10 μl of a 1/20 dilution (diluted before use) of coelenterazine 400A (stock at 1 mM in ethanol) in Kreb's buffer and 10 μl of the 10× appropriate concentration of peptide were added, and the luminescence was evaluated with an Infinite M1000 PRO. […] Readings were performed after 5 min using an Infinite M1000 PRO. Filters were set at 410 nm and 515 nm for detecting the Renilla luciferase II (RlucII, donor) and green fluorescent protein 10 (GFP10, acceptor) light emission, respectively. BRET ratio was determined by calculating the ratio of the light emitted by GFP10 over the light emitted by the RlucII.

HEK 293 cells [4] = test: EGFR transactivation (EGFR-GFP internalization, confocal microscopy), untransfected/mock HEK 293 cells; type: cell-based; details: HEK 293, 30 min
Experimental: Figure 7 UT-pepducins-mediated transactivation of EGFR following hUT activation. […] EGFR internalization, following hUT stimulation with various ligands for 30 min, was visualized using confocal microscopy. The images shown are from representative experiments repeated at least three times.
HEK 293 and HEK 293-hUT cells, transiently transfected with cDNA encoding fluorescently labeled EGFR (EGFR-GFP) (2 μg), were plated onto 35-mm glass-bottomed culture dishes (MatTek Corp). Following stimulation, cells were washed once with PBS and fixed in 4% paraformaldehyde for 15 min. To study the involvement of Gq in EGFR internalization, cells were treated with YM254890 (100 nM) for 1h prior peptide treatments. […] EGFR-GFP internalization was visualized using a combination of excitation (488 nm) and emission filters (499 and 520 nm). […]
endogenously expressed hUT activation in untransfected HEK 293 cells.HEK 293 expressing low level of wild type hUT and transfected […]
using confocal microscopy. The image shown are from representative experiments repeated at least three times. Arrows indicate cellular aggregates representing EGFR internalization.
(1 picture or pasted object on this page, not shown here)

CCCCCCCCCCCCCCCC(=O)N[C@@H](Cc1c[nH]c2ccccc12)C(=O)N[C@@H](CC(C)C)C(=O)N[C@@H](CO)C(=O)N[C@@H](CCC(N)=O)C(=O)N[C@@H](CCCNC(=N)N)C(=O)N[C@@H](C)C(=O)N[C@@H](CO)C(=O)N[C@@H](Cc1ccccc1)C(=O)N[C@@H](CCCCN)C(=O)N[C@@H](CCCNC(=N)N)C(=O)N[C@@H](C)C(=O)N[C@@H](CCCNC(=N)N)C(=O)N[C@@H](CCCNC(=N)N)C(N)=O [[Trp^1, Leu^2]hUT-Pep3] (Palmitoyl-WLSQRASFKRARR-NH2) was tested, and the “effect on cell viability at 10^−4 M” value (HEK 293 cells [1]) was “as cytotoxic as unmodified hUT-Pep3 at 10^−7 M”, the “effect on cell viability up to 10^−5 M” value (HEK 293 cells [1]) was “did not significantly affect HEK 293 cell viability” and the Emax at 1 µM (hUT [2]; read-out: G12 activation, maximum efficacy at 10^−6 M) was 5%. For the same molecule, the EC50 (hUT [3]; mean ± SEM, n = 3–5, read-out: β-arrestin 2 pEC50 (converted)) was 18.2 nM and the Emax (hUT [3]; percentage of the activation induced by hUII (10^−6 M), mean ± SEM, n = 3–5) was 19 ± 3%.

For CC(C)[C@H](NC(=O)[C@@H]1CSSC[C@H](NC(=O)[C@H](CC(=O)O)NC(=O)[C@@H]2CCCN2C(=O)[C@@H](NC(=O)[C@@H](N)CCC(=O)O)[C@@H](C)O)C(=O)N[C@@H](Cc2ccccc2)C(=O)N[C@@H](Cc2c[nH]c3ccccc23)C(=O)N[C@@H](CCCCN)C(=O)N[C@@H](Cc2ccc(O)cc2)C(=O)N1)C(=O)O [hUII, urotensin II, reference compound], the “EGFR internalization in untransfected/mock-transfected cells” value (HEK 293 cells [4]) was “limited EGFR internalization can be observed in untransfected HEK 293 cells” and the Emax at 1 µM (hUT [2]; read-out: G12 activation Emax) was 98 ± 3%.

With CCCCCCCCCCCCCCCC(=O)N[C@@H](CCCNC(=N)N)C(=O)N1CCC[C@H]1C(=O)N[C@@H](CC(C)C)C(=O)N[C@@H](CC(=O)O)C(=O)N[C@H](C(=O)N[C@H](C(=O)N[C@@H](CCC(N)=O)C(=O)N[C@@H](CCCNC(=N)N)C(=O)N1CCC[C@H]1C(=O)N[C@@H](CCCCN)C(=O)NCC(=O)N[C@@H](Cc1ccc(O)cc1)C(N)=O)C(C)C)[C@@H](C)O [hUT-Pep2] (Palmitoyl-RPLDTVQRPKGY-NH2) the “effect on cell viability at 10^−4 M” value (HEK 293 cells [1]) was “as cytotoxic as unmodified hUT-Pep3 at 10^−7 M”, the “effect on cell viability up to 10^−5 M” value (HEK 293 cells [1]) was “did not significantly affect HEK 293 cell viability” and the Emax at 1 µM (hUT [3]; at 10^−6 M, percentage of the activation induced by hUII (10^−6 M), read-out: β-arrestin 2, maximum efficacy at 10^−6 M) was about 15%.
